Results from US20240315992A1, “AMINOXY ACID-BASED ANTIBACTERIAL COMPOUNDS AND METHODS THEREOF” (The University of Hong Kong, priority 2023, published 2024).
Values after ≈ are worked out from the molar mass of the structure shown.

Tests used:
[1] = tested on: Staphylococcus aureus strain USA300-LAC; experiment: Non-lethal bacteremia model, bacteria loads in organs; type: in vivo, Balb/c mice; details: 10 mg/kg/day intraperitoneal, 4 days
Protocol: FIG. 9 are the bar graphs showing compound 8 and compound 35 reduce bacteria loads in different organs of the mice infected by Staphylococcus aureus. Grubb's test was performed to test for outliers. Statistical analysis was performed with two-sided paired t test. (*p<0.05).
Staphylococcus aureus strain USA300-LAC were cultured to the early exponential phase of growth, washed twice with sterile phosphate-buffered saline solution (PBS), and resuspended in PBS at 5×10^6 CFU/200 μL for non-lethal bacteremia model. The female Balb/c mice, 6-8 weeks, were infected intravenously (i.v.) through the tail vein with Staphylococcus aureus and randomized into three groups (N=14 for vehicle; N=12 for compound 8 and compound 35 respectively). One hour after infection, mice received intraperitoneal injections of compound 8 or compound 35 (10 mg/kg/day) or an injection of buffer (PBS with 2.5% DMSO and 2% Tween-80) as the control. The compound and injection buffer treatments were performed twice per day at 12-h intervals. The challenged mice were monitored for 4 days, at which point all the remaining mice were sacrificed. The CFU of S. aureus were determined in heart, liver, kidney and lung by plating in series dilution. Grubb's test was performed to test for outliers. Statistical analysis was performed with two-sided paired t test. (*p<0.05).

[2] = tested on: multidrug resistant Staphylococcus aureus Mu3; experiment: MIC by CLSI broth micro-dilution, MRSA Mu3; type: cell-based; details: MRSA, CLSI broth micro-dilution, CAMH, read-out: Minimum inhibitory concentration (μM) in MRSA Mu3
Protocol: Aminoxy acids were synthesized by the standard peptide coupling procedures. Minimum inhibitory concentration was determined using CLSI broth micro-dilution method in 96-wells microtitre plates. Minimum inhibitory concentration is defined as the lowest concentration of the compound that inhibits visible growth of the bacteria. All experiments were performed three times. 24 compounds including aminoxy acid monomers and dipeptides have been identified to show toxicity against multidrug resistant Staphylococcus aureus Mu3 and summarized in Table 1. The minimum inhibitory concentration of compound 8 and compound 35 on other gram-positive bacteria was also evaluated and summarized in Table 2. […] As shown in FIGS. 3A-3B there are no observable hemolysis for compound 8 and compound 35 towards human red blood cell.
Bacteria were streaked from the glycerol stock into BHI agar and were incubated overnight. Single colony was picked for the overnight culture in cation-adjusted Mueller Hinton broth (CAMH), LB or BHI. The overnight culture was sub-cultured and regrew to exponential phase for the experiment.
MIC was determined by CLSI broth micro-dilution method in 96-wells microtitre plates. For compounds dissolved in water, 100 μL of 2× testing concentration was added to the first well of each column, followed by two-fold serial dilution for successive wells with 50 μL medium. For chemical compounds dissolved in DMSO, the compounds were two-fold serial diluted by DMSO in a DMSO-compatible 96-well plate. 1 μL of compound in DMSO was transferred into 96-wells microtitre plate containing 50 μL medium to give 2× testing concentration. An overnight culture of bacteria was grown into exponential phase. The bacteria culture was diluted to 1×10^6 CFU/mL and 50 μL of diluted culture were added into each well. The test plates were kept in a 37° C. incubator overnight. Optical density was recorded by DTX 880 multimode detector (Beckman Coulter, California, US). MIC is defined as the lowest concentration of the compound that inhibits visible growth of bacteria. Biological replicates were performed. CAMH was used for bacteria culture and MIC test except S. pneumoniae, L. monocytogenes, E. faecalis and M. smegmatis for which BHI was used as culture medium

MIC [2]	Structure (SMILES)	bacteria load in heart [1]	bacteria load in liver [1]	bacteria load in lung [1]
> 12.5 µM	CC(C)C[C@H](ONC(=O)[C@@H](COCc1ccccc1)ONC(=O)c1cccc2cccnc12)C(=O)Nc1ccc2c(c1)OC(F)(F)O2 [Compound 49]			
1.56 µM (≈ 1.13 µg/mL)	CC(C)C[C@H](ONC(=O)[C@@H](COCc1ccccc1)ONC(=O)c1cc(C(F)(F)F)cc(C(F)(F)F)c1)C(=O)Nc1ccc(C(F)(F)F)cc1 [Compound 38]			
> 12.5 µM	CC(C)C[C@H](ONC(=O)[C@@H](COCc1ccccc1)ONC(=O)c1ccc(F)cc1)C(=O)Nc1ccc2c(c1)OC(F)(F)O2 [Compound 47]			

The remaining lines, values behind:

Structure (SMILES)	MIC [2]	bacteria load in heart [1]	bacteria load in liver [1]	bacteria load in lung [1]
CC(C)C[C@H](ONC(=O)[C@@H](COCc1ccccc1)ONC(=O)c1cc(C(F)(F)F)cc(C(F)(F)F)c1)C(=O)NCc1ccccc1 [Compound 30]	> 12.5 µM	can reduce the bacteria load	can reduce the bacteria load	can reduce the bacteria load
O=C(O)C[C@@H](ONC(=O)[C@@H](COCc1ccccc1)ONC(=O)c1cc(C(F)(F)F)cc(C(F)(F)F)c1)C(=O)Nc1ccccc1 [Compound 18]	> 12.5 µM			
